Experimental findings from patent US20260137662A1, “CD11B AGONISTS FOR TREATMENT OF AUTOIMMUNE DISEASE” (Rush University Medical Center, priority 2022, published 2026) are described below.

Structures are written as SMILES.

Assay [1] relates to IMQ-induced mouse model of lupus. The experiment in a line: IMQ-induced mouse model of lupus, LA1 co-treatment i.p. It counts as in vivo, wild type C57BL/6 mice. The settings on record: IMQ cream 8 weeks. The procedure:
FIG. 8A illustrates an experimental timeline for the measurement of suPAR levels, albumin creatinine ratios (ACR), anti-dsDNA antibody levels, and spleen size in wild type mouse models treated with IMQ, LA1, or IMO and LA1 co-treatment.
FIG. 8B illustrates levels of biomarker suPAR in the blood and urine of wild type mice (WT), mice treated with IMQ, mice co-treated with IMQ and vehicle DMSO or mice co-treated with IMQ and LA1 (2 mg/kg i.p. daily). Each dot represents a unique sample. Bars show mean +/−SEM (n=5).
FIG. 8C illustrates the albumin creatinine ratios (ACR) in the blood and urine of wild type mice (WT), mice treated with IMQ, mice co-treated with IMQ and vehicle DMSO or mice co-treated with IMQ and LA1 (2 mg/kg i.p. daily). Each dot represents a unique sample. Bars show mean +/−SEM (n=5).
FIG. 8D illustrates levels of anti-dsDNA antibodies in the blood and urine of wild type mice (WT), mice treated with IMQ, mice co-treated with IMQ and vehicle DMSO, or mice co-treated with IMQ and LA1 (2 mg/kg i.p. daily). Each dot represents a unique sample. Bars show mean +/−SEM (n=5).
FIG. 8E illustrates spleen size (mm) and weight (g) of wild type mice (WT), mice treated with IMQ, mice co-treated with IMQ and vehicle DMSO, or mice co-treated with IMQ and LA1. Each dot represents a unique sample. Bars show mean +/−SEM (n=5).
To investigate efficacy of LA1 as a therapeutic for SLE and autoimmune diseases in vivo, an IMQ-induced mouse model of lupus (Yokogawa et al, 2014) was used. Imiquimod (IMQ), a known TLR7 stimulant, was used to induce disease in wild type mice. Briefly, wild type C57BL/6 mice (WT) were treated topically with IMQ cream (Aldara) over the course of 8 weeks, as shown in the timeline of FIG. 8A, a group was also co-treated intraperitoneally with LA1 or vehicle DMSO. Blood and urine were collected for analysis of inflammatory cytokines and proteinuria over the course of treatment. […] Additionally, spleen size and weight were recorded.

For assay [2], the system named is MRL/lpr mice. The experiment in a line: MRL/lpr mouse model of lupus and LN: alopecia and skin lesions. The conditions noted are these: for alopecia (nose area): Mrl/lpr mice. It is filed as in vivo. An excerpt: FIG. 13B illustrates percentage of skin effected by alopecia on the nose area of untreated mice (Ctrl), mice treated with a vehicle (Veh), and mice treated with LA1 (LA1). […] Bars show mean +/−SEM (n=5).
FIG. 13C illustrates lesion size (mm) in untreated mice (Ctrl), mice treated with a vehicle (Veh), and mice treated with LA1 (LA1). […] Bars show mean +/−SEM (n=5).
To evaluate the efficacy of LA1 as a treatment for LN, MRL/ipr mouse models were used. MRL/lpr mice develop high circulating levels of IFN-I, systemic inflammation and multi-organ pathology, including skin, vascular, and kidney damage, and LN. Thus, this genetic mouse model mimics several features of human lupus and LN.

Assay [3] deals with LPS-treated wild type C57BL/6 mice. The experiment in a line: Serum IL-6 in LPS-treated mice, oral LA1 dose response. It counts as in vivo. The conditions noted are these: 4 hours. The procedure: FIG. 11 illustrates the concentration of biomarker IL-6 in wild type mice and wild type mice co-treated with various dose amounts of LPS and LA1 (0, 2, 10, 30, or 60 mg/kg). Each dot represents a unique sample. Bars show mean +/−SEM (n=4).
Administration of LPS to wild type C57BL/6 mice (WT) results in rapid elevation of pro-inflammatory mediators, such as IL-6, in murine sera. WT mice treated with LPS were used to study the dose-responsive efficacy of LA1 in reducing inflammatory cytokine levels in vivo. A single dose of LA 1 was orally administered to mice co-administered LPS. After 4 hours, sera was collected and used for ELISA.

Assay [4] deals with TLR7 mediated pro-inflammatory biomarkers. As to the kind of experiment: Secretion of pro-inflammatory biomarkers from myeloid cells stimulated with imiquimod (ELISA). It counts as cell-based. The settings on record: IMQ (20 ug/mL) and LA1 (20 uM) co-treatment, 4 hours. How it is done: FIG. 5A illustrates the levels of biomarker IL-1b secretion in myeloid cells after 4 hours of treatment with vehicle DMSO (UT), LA1 (20 uM), Imiquimod (IMQ) (20 ug/mL), or IMQ and LA1 co-treatment. Bars show mean with SD (N=3) (*P<0.05, **P<0.01, ***P<0.001, ***P<0.0001).
FIG. 5B illustrates the levels of biomarker suPAR secretion in myeloid cells after 4 hours of treatment with vehicle DMSO (UT), LA1 (20 uM), Imiquimod (IMQ) (20 ug/mL), or IMQ and LA1 co-treatment. Bars show mean with SD (N=3) (*P<0.05, **P<0.01, ***P<0.001, ***P<0.0001).
FIG. 5C illustrates the levels of biomarker IL-6 secretion in myeloid cells after 4 hours of treatment with vehicle DMSO (UT), LA1 (20 uM), Imiquimod (IMQ) (20 ug/mL), or IMQ and LA1 co-treatment. Bars show mean with SD (N=3) (*P<0.05, **P<0.01, ***P<0.001, ***P<0.0001).
FIG. 5D illustrates the levels of biomarker TNFalpha secretion in myeloid cells after 4 hours of treatment with vehicle DMSO (UT), LA1 (20 uM), Imiquimod (IMQ) (20 ug/mL), or IMQ and LA1 co-treatment.
FIG. 5E illustrates the levels of biomarker IFN-b secretion in myeloid cells after 4 hours of treatment with vehicle DMSO (UT), LA1 (20 uM), Imiquimod (IMQ) (20 ug/mL), or IMQ and LA1 co-treatment. Bars show mean with SD (N=3) (*P<0.05, **P<0.01, ***P<0.001, ****P<0.0001).
The concentration of TLR7 mediated pro-inflammatory biomarkers in untreated myeloid cells, myeloid cells treated with LA1, myeloid cells treated with IMQ, and myeloid cells co-treated with IMQ and LA1 was assessed by ELISA.

Where [5] appears, read: co-treated with LA1 2 mg/kg i.p. daily, vs IMQ.

For `O=C(O)c1ccc(-c2ccc(/C=C3\SC(=S)N(Cc4ccccc4)C3=O)o2)cc1` [LA1, (Z)-4-(5-((3-benzyl-4-oxo-2-thioxothiazolidin-5-ylidene)methyl)furan-2-yl)benzoic acid], in assay [1] (co-treated with LA1), the spleen size entry was “reduced” and the spleen weight entry is given as “reduced”. Also, in assay [1] (setting [5]), the “albumin creatinine ratios (ACR)” value is given as “significantly reduced”, the “levels of anti-dsDNA antibodies” value is recorded as “significantly reduced” and the “levels of suPAR” value is “significantly reduced”. For the same molecule, in assay [2] (Mrl/lpr mice treated with LA1, co-treatment and delayed treatment), the skin lesions result is listed as “reduces clinical symptoms”. Further, the “alopecia (nose area)” value in assay [2] (LA1 as co-treatment) is on record as “reduction in alopecia”. Also, in assay [2] (LA1 treatment after 2-weeks of disease onset), the “alopecia (nose area)” value is on record as “reduction in alopecia”. Further, the “serum IL-6 levels versus non-LPS injected WT control” value in assay [3] (LA1 30 mg/kg oral) is listed as “no difference”. Further, the “serum IL-6 levels versus non-LPS injected WT control” value in assay [3] (LA1 60 mg/kg oral) is on record as “no difference”. Moreover, the “IL-6 levels in murine sera” value in assay [3] (single oral dose of LA1 (2, 10, 30, 60 mg/kg) co-administered with LPS, dose dependent) was “significantly reduced”. Besides, in assay [4], the “TLR7-dependent increase in IL-1b level (ELISA)” value was “significantly reduced”, the “TLR7-dependent increase in IL-6 level (ELISA)” value is recorded as “significantly reduced”, the “TLR7-dependent increase in TNF-a level (ELISA)” value is listed as “significantly reduced” and the “TLR7-dependent increase in uPAR level (ELISA)” value is “significantly reduced”.
